Literature values in patent US20060210650A1, “Supplemental dietary composition for promoting weight loss” (priority 2004, published 2006).

Settings: 8-week study

In the case of `O=C(O)CC(O)(C(=O)O)C(O)C(=O)O` (single isomer, unassigned; (-)) [HCA, (−) hydroxycitric acid], the “High-Density Lipoproteins and excretion of urinary fat metabolites” value is given as “increased” and the “LDL-cholesterol, triglycerides and serum leptin levels” value is given as “decrease”.
